Read-outs that look alike come from different tables or passages of the source.
How the values were obtained:
IGF-I receptor = conditions: chronic ethanol feeding; temporal lobe, hypothalamus, and cerebellum
Source text: (§1) Male (˜200 g) Long Evans rats (Charles River Laboratories, Cambridge, Mass.) were fed isocaloric liquid diets (BioServ, Frenchtown, N.J.) in which ethanol comprised 0% or 37% of the caloric content (9.25% v/v) for 6 weeks (Yeon et al., Hepatology 38:703 (2003)). A chow fed control group was also studied. Rats were monitored daily to ensure equivalent food consumption and maintenance of body weight. Upon sacrifice, the brains were harvested and either immersion fixed in Histochoice fixative (Amresco Corp., Solon, Ohio) for paraffin embedding, or sliced fresh to micro-dissect temporal cortex, hypothalamus, and cerebellum. The fresh tissue blocks were snap frozen in a dry ice-methanol bath and stored at −80° C. for mRNA and protein studies.
(§2) Fresh frozen tissue (˜100 mg) was homogenized in 5 volumes of NP-40 lysis buffer (50 mM Tris-HCl, pH 7.5, 1% NP-40, 150 mM NaCl, 1 mM EDTA, 2 mM EGTA) containing protease inhibitors (1 mM PMSF, 0.1 mM TPCK, 1 μg/ml aprotinin, 1 μg/ml pepstatin A, 0.5 μg/ml leupeptin, 1 mM NaF, 1 mM Na4P2O7). Protein concentrations were determined using the bicinchoninic acid (BCA) assay (Pierce, Rockford, Ill.). Exploratory studies determined the amounts of protein and concentrations of radiolabeled ligand required to achieve 20% specific binding. Insulin receptor binding assays were performed using 100 μg protein. IGF-I binding assays required 25 μg protein per sample, and IGF-II receptor binding assays were optimized using 10 μg protein. Competitive equilibrium binding assays were used to assess growth factor binding in relation to ethanol exposure. For total binding, duplicate individual protein samples were incubated in 100 μl reactions containing binding buffer (100 mM HEPES, pH 8.0, 118 mM NaCl, 1.2 mM MgSO4, 8.8 mM dextrose, 5 mM KCl, 1% bovine serum albumin) and 100 nCi/ml of [^125I] (2000 Ci/mmol; […]) insulin, IGF-I, or IGF-II. To measure non-specific binding, replicate samples were identically prepared but with the addition of 0.1 μM unlabeled (cold) ligand.
(§3) All reactions were performed in 1.5 ml Eppendorff tubes, and the incubations were performed at 4° C. for 16 hours with gentle platform agitation. Bound radiolabeled tracer was then precipitated by adding 500 μl of 0.15% bovine gamma globulin (prepared in 100 mM Tris-HCl, pH 8.0) followed by 400 μl 37.5% polyethylene glycol 8000 (PEG-8000; prepared in 100 mM Tris-HCl, pH 8.0) to each tube. […] The samples were counted for 1 minute in an LKB CompuGamma CS Gamma counter. Specific binding was calculated by subtracting fmol of non-specific binding, i.e., amount bound in the presence of cold ligand, from the total fmol bound (absence of unlabeled competitive ligand). The results were analyzed and plotted using the GraphPad Prism 4 software (GraphPad Software, Inc., San Diego, Calif.). […]

IGF-II receptor = conditions: chronic ethanol feeding
Source text: as §1, §2, §3

insulin receptor = conditions: chronic ethanol feeding; temporal lobe, hypothalamus, and cerebellum
Source text: as §1, §2, §3

IGF-II receptors = conditions: pup cerebellar membrane extracts, chronic gestational ethanol exposure relative to control; not dose-dependent
Experimental: Fresh frozen tissue (˜100 mg) was homogenized in 5 volumes of NP-40 lysis buffer (50 mM Tris-HCl, pH 7.5, 1% NP-40, 150 mM NaCl, 1 mM EDTA, 2 mM EGTA) containing protease inhibitors (1 mM PMSF, 0.1 mM TPCK, 1 μg/ml aprotinin, 1 μg/ml pepstatin A, 0.5 μg/ml leupeptin, 1 mM NaF, 1 mM Na4P2O7). Protein concentrations were determined using the bicinchoninic acid (BCA) assay (Pierce, Rockford, Ill.). Exploratory studies determined the amounts of protein and concentrations of radiolabeled ligand required to achieve 20% specific binding. Insulin receptor binding assays were performed using 100 μg protein. IGF-I binding assays required 25 μg protein per sample, and IGF-II receptor binding assays were optimized using 10 μg protein. […]
All reactions were performed in 1.5 ml Eppendorff tubes, and the incubations were performed at 4° C. for 16 hours with gentle platform agitation. […] The samples were counted for 1 minute in an LKB CompuGamma CS Gamma counter. Specific binding was calculated by subtracting fmol of non-specific binding, i.e., amount bound in the presence of cold ligand, from the total fmol bound (absence of unlabeled competitive ligand). The results were analyzed and plotted using the GraphPad Prism 4 software (GraphPad Software, Inc., San Diego, Calif.).

With `CCO` [ethanol] the IGF-I receptor binding (IGF-I receptor) was “significantly reduced”, the IGF-II receptor binding (IGF-II receptor; cerebella, relative to control rats) was “significantly lower” and the IGF-II receptor binding (IGF-II receptor; temporal lobe and hypothalamus) was “relatively preserved”. The insulin receptor binding (insulin receptor) was “significantly reduced” and the “impairment of IGF-II receptor binding” value (IGF-II receptors) was ~50%.

From patent publication US9308198B2, “Treatment, prevention, and reversal of alcohol-induced brain disease” (priority 2006, dated 2016)
